{"source": "patent US20240033233A1", "about": "“COMPOSITIONS AND METHODS FOR DELIVERING PHARMACEUTICAL AGENTS” (Arizona Board of Regents on Behalf of the University of …, priority 2020, published 2024)", "key": {"[1]": {"details": "cited from earlier work"}, "[2]": {"test_system": "UV-induced AP-1 activation", "details": "acetone solution of resatorvid, mouse epidermis; cited from earlier work"}, "p-p38 signal in EpiDerms": {"test_system": "p-p38 signal in EpiDerms", "test": "p-p38 signal after topical resatorvid with or without solar simulated light", "type": "cell-based, human", "details": "constitutive or UV-induced"}, "[3]": {"test": "In vitro oil-water partitioning coefficient (Log-P), 1-octanol/PBS", "type": "physicochemical", "details": "for logP: 1-octanol/PBS; for partition coefficient (Log-P): range over pH 6.5, 7.1, 8.8", "method": "TAK242 raw powder was weighed out (0.003 g) and placed in 2 dram ambered colored glass vials containing equal volumes (1.5 mL) of 1-octanol and PBS (1×, pH=7.4). Various solutions were made, and pH was adjusted and maintained at 6.5, 7.1, 8.8, adjustments were made using 0.1 M HCl solution and 0.1 M NaOH solution. […] The vials were rotated using a Barnstead/Thermolyne Labquake shaker (Dubuque, IA, USA) for 24 hours and then left undisturbed in a vertical position for an additional 24 hours for phase separation between the aqueous and non-aqueous layers. A sample of each layer was carefully withdrawn and then analyzed by a validated HPLC method as describe in the HPLC analysis section under methods."}, "[4]": {"details": "cited from earlier work", "remark": "listed apart in the source"}, "[5]": {"test": "UV-Vis spectra of resatorvid solution in PEG400 on storage", "type": "physicochemical", "details": "0.1% w/v in PEG400, 4 days at 25° C.", "text": "The solvents that were used were PEG400, EtOH 140 proof, PBS pH 7.4, Acetonitrile, NS, and MeOH. PEG600 was not used as it was too thick. At a concentration of 0.1% w/v it was observed that resatorvid was soluble in PEG400, acetonitrile and EtOH 140 proof and HPLC grade MeOH. 0.01% w/v solutions were also made for some samples to show an acceptable UV-Vis spectra. Resatorvid was not soluble in NS or PBS pH 7.4.\nA Molecular Devices® SpectraMax® M3 Multi-Mode Microplate Reader (Sunnyvale, CA, USA) was used to perform UV/Vis spectroscopy. The wavelength range was 190 through 290 nm. A 0.1% w/v solution of TAK-242 in HPLC grade methanol, PEG-400, HPLC grade ethanol, HPLC grade acetonitrile, PBS (pH=7.4) and 0.85% w/v normal saline were made and analyzed under UV visible spectroscopy on a 96-wellplate black clear bottom."}, "[6]": {"test_system": "primary normal epidermal keratinocytes (NHEK)", "test": "In vitro cell dose-response (resazurin viability) in 2-D culture, NHEK", "type": "cell-based, human", "details": "72 h exposure", "method": "(§1) The effects of raw TAK-242 powder on the viability of human representative human keratinocyte cell lines exposed to different concentrations were tested. HaCaT (a human transformed keratinocyte from histologically normal skin cell line) and NHEK (a primary normal epidermal keratinocyte cell line) were used as models of the human epidermis, which express keratinocytes in the stratum basale and then move up the final barrier layer of the skin, which is the stratum corneum. The HaCaT cells were grown in Dulbecco's modified Eagle's medium (DMEM), Optimized 1×, 10% (v/v) fetal bovine serum (FBS), and Pen-Strep (100 units/mL penicillin, 100 μg/mL) in a humidified incubator at 37° C. and 5% CO2. NHEK cells were grown NHEK- growth medium provided by MatTek (Ashland, MA, USA) in a humidified incubator at 37° C. and 5% CO2.\nAfter confluence, HaCaT and NHEK cells were seeded in 96-black well plate at a concentration of 5,000 cells in 100 μL of media per well. After 48 hours, cells were then incubated for 48 h to allow attachment to the surface of the plates. Cells were then exposed to different concentrations of TAK-242. […] Fluorescence intensity of resofurin was detected at 544 nm (excitation) and 590 nm (emission) using the Molecular Devices® SpectraMax® M3 Multi-Mode Microplate Reader (Sunnyvale, CA, USA). The relative viability of the cells was calculated as followed by equation 1: […]"}, "[7]": {"details": "cited from earlier work", "remark": "listed apart in the source"}, "[8]": {"test_system": "human transformed keratinocytes (HaCaT)", "test": "In vitro cell dose-response (resazurin viability) in 2-D culture, HaCaT", "type": "cell-based", "details": "72 h exposure", "method": "as §1\nAfter confluence, HaCaT and NHEK cells were seeded in 96-black well plate at a concentration of 5,000 cells in 100 μL of media per well. After 48 hours, cells were then incubated for 48 h to allow attachment to the surface of the plates. Cells were then exposed to different concentrations of TAK-242. The drug solutions were prepared by dissolving raw TAK-242 powder in 5% v/v DMSO and DMEM media to make a solution at 1×. A volume of 100 μL of drug solution was added to each well. After 72 h of exposure and incubation at 37° C. and 5% CO2, 20 μL of 20 μM resazurin sodium salt were added to each well and incubated for 4 h. Fluorescence intensity of resofurin was detected at 544 nm (excitation) and 590 nm (emission) using the Molecular Devices® SpectraMax® M3 Multi-Mode Microplate Reader (Sunnyvale, CA, USA). The relative viability of the cells was calculated as followed by equation 1: […]"}, "[9]": {"test": "Solubility of resatorvid in solvents (sonication, visual observation)", "type": "physicochemical", "method": "To determine solubility of resatorvid in a liquid formulation, a variety of solvents were tested: phosphate buffered saline, NS, ethanol, and PEG400, all with resatorvid at a concentration of 0.1% w/v and the solutions were sonicated for 1 hour at room temperature.\nIn addition, a solution of 5% w/v resatorvid in EtOH 140 proof was prepared (1 mL of ETOH and 50 mg of resatorvid). The solution was not translucent and became opaque/cloudy and there was still drug undissolved floating around.\nSolutions were made with w/v TAK242+PEG600 and 5% w/v TAK242+100% Acetone. All three solutions were sonicated at room temperature for 1 hour. […] As the solution began to adjust to ambient temperature it started to solidify into a white thick substance almost like lard.\nFurther experiments were conducted using glycerol as the solvent. 0.0504 g of TAK-242 was weighed out to make a 5.04% w/v solution in 1 mL of glycerol, USP grade. […]. The solution was then sonicated for 60 minutes at 37° C. […] Images were taken at each to document the outcome.\nA 5% w/v solution of resatorvid (50mg) and PEG 400 USP (1 mL) was prepared.\n(§2) Seven platforms were analyzed for compatibility with TAK-242. The platforms were DermaBASE cream (cream and lotion), PENcream (cream), PEG-400 solution, PG solution, 1% w/v Carbomer 934P resin gel at pH˜7, 2% w/v Sodium hyaluronate gel/serum and 20% w/v Pluronic F127 gel. Solubility of TAK-242 was determined at concentrations ranging from 0.1-5% w/v using PBS (pH=7.41), 0.9% normal saline (NS), HPLC grade ethanol, PEG-400 and PG as solvents. The following step was to test if TAK-242 could be directly incorporated into the platforms mentioned above via non-sterile compounding to determine if the drug would need to be pre-dissolved before incorporation. Determination of how much volume of PEG-400 or PG could be incorporated into the creams and gels without losing consistency while maintaining homogeneity was examined; 1 g of base (cream or gel) was weighed out and was compounded with PEG-400 or PG (500 μL-1000 μL). Drug was then dissolved in appropriate determined volume of compatible solvent and sonicated for 60 minutes, then it was prepared via non-sterile compounding technique and formulations were examined for physical appearance (consistency, homogeneity, visible precipitation, phase separation, compatibility). The only formulation that was different was the Pluronic F127 as everything was mixed in as a liquid at 4° C. and the solution would then solidify at room temperature […] to create the gel which was then mixed thoroughly until homogenous."}, "[10]": {"test": "Direct incorporation of resatorvid powder into cream bases (solubility/compatibility)", "type": "physicochemical", "details": "room temperature 30 minutes to 1 hour", "method": "The solubility of the drug as powder was tested on both Dermabase cream as well as PENcream. […] It was a clear indication that the drug would have to be pre-dissolved in a solution before incorporating into the creams.\nA variety of cream/lotion formulations were prepared. One gram of Dermabase cream and 0.1 gram of resatorvid were compounded together. […] One gram of PENcream was compounded with 0.1 grams of resatorvid. After compounding the mixture sat for 1 hour at room temp. […] PEG 400 USP and PEG 600 USP at volumes of 0.5 mL, 1 mL and 2 mL were used with 1 gram of cream base. […] PEG 600 USP changed the cream consistency to a lotion for each cream at added volumes 0.5 mL, 1 mL and 2 mL.\nas §2"}, "[11]": {"details": "series of increasing concentrations"}}, "note": "Read-outs that look alike come from different tables or passages of the source.", "data": [{"smiles": "CCOC(=O)C1=CCCC[C@H]1S(=O)(=O)Nc1ccc(F)cc1Cl", "note": "[Resatorvid]", "values": [{"measurement": "reported Log P", "setting": "[1]", "result": 2.53}, {"measurement": "UV-induced AP-1 activation", "setting": "[2]", "result": "blocked"}, {"measurement": "p-p38 signal", "setting": "p-p38 signal in EpiDerms", "result": "potently blocked"}, {"measurement": "logP", "setting": "[3]; as quoted, conditions not stated, read-out: log P", "result": 1.54}, {"measurement": "logP", "setting": "[3]; pH 6.5, At 35° C., pH = 6.5, read-out: Experimental (Log P) Average ± SD", "result": "1.65 ± 0.029"}, {"measurement": "logP", "setting": "[3]; pH 6.5, At Room temperature/ambient temperature, pH = 6.5, read-out: Experimental (Log P) Average ± SD", "result": "1.58 ± 0.019"}, {"measurement": "logP", "setting": "[3]; pH 7.1, At 35° C., pH = 7.1, read-out: Experimental (Log P) Avg. Log-P ± SD", "result": "1.68 ± 0.013"}, {"measurement": "logP", "setting": "[3]; pH 7.1, At Room temperature/ambient temperature, pH = 7.1, read-out: Experimental (Log P) Avg. Log-P ± SD", "result": "1.54 ± 0.149"}, {"measurement": "logP", "setting": "[3]; pH 8.8, At 35° C., pH = 8.8, read-out: Experimental (Log P) Avg. Log-P ± SD", "result": "0.94 ± 0.023"}, {"measurement": "logP", "setting": "[3]; pH 8.8, At Room temperature/ambient temperature, pH = 8.8, read-out: Experimental (Log P) Avg. Log-P ± SD", "result": "0.88 ± 0.06"}, {"measurement": "partition coefficient (Log-P)", "setting": "[3]; at 35° C.", "result": "0.94-1.68"}, {"measurement": "partition coefficient (Log-P)", "setting": "[3]; at 37° C.", "result": "0.88-1.58"}, {"measurement": "experimentally determined pKa reported", "setting": "[4]", "result": "8.0-8.1"}, {"measurement": "stability of drug in solution (UV-VIS spectra)", "setting": "[5]", "result": "no changes in the drug"}, {"measurement": "% cell viability", "setting": "[6]; all concentrations", "result": "~100", "unit": "%"}, {"measurement": "toxicity", "setting": "[6]; [11]", "result": "did not show any significant toxicity"}, {"measurement": "reported solubility", "setting": "[7]; in DMSO", "result": 10, "unit": "mg/mL"}, {"measurement": "reported solubility", "setting": "[7]; in EtOH", "result": 20, "unit": "mg/mL"}, {"measurement": "reported solubility", "setting": "[7]; in H2O", "result": "sparingly soluble"}, {"measurement": "% cell viability", "setting": "[8]; 1000 μM", "result": "~70", "unit": "%"}, {"measurement": "% cell viability", "setting": "[8]; all concentrations except 1000 μM", "result": "~100", "unit": "%"}, {"measurement": "toxicity", "setting": "[8]; [11]", "result": "did not show any significant toxicity"}, {"measurement": "solubility", "setting": "[9]; 0.1% w/v in EtOH 140 proof", "result": "soluble"}, {"measurement": "solubility", "setting": "[9]; 0.1% w/v in EtOH 140 proof, listed as TAK-242", "result": "completely dissolved"}, {"measurement": "solubility", "setting": "[9]; 0.1% w/v in HPLC grade MeOH", "result": "soluble"}, {"measurement": "solubility", "setting": "[9]; 0.1% w/v in NS (normal saline)", "result": "not soluble"}, {"measurement": "solubility", "setting": "[9]; 0.1% w/v in NS (normal saline), listed as TAK-242", "result": "failed to dissolve"}, {"measurement": "solubility", "setting": "[9]; 0.1% w/v in PBS pH 7.4", "result": "not soluble"}, {"measurement": "solubility", "setting": "[9]; 0.1% w/v in PBS pH 7.4, listed as TAK-242", "result": "failed to dissolve"}, {"measurement": "solubility", "setting": "[9]; 0.1% w/v in PEG400", "result": "soluble"}, {"measurement": "solubility", "setting": "[9]; 0.1% w/v in acetonitrile", "result": "soluble"}, {"measurement": "solubility", "setting": "[9]; 5% w/v in 100% acetone, sonicated at room temperature 1 hour", "result": "dissolved the drug completely"}, {"measurement": "solubility", "setting": "[9]; 5% w/v in EtOH 140 proof", "result": "only partially dissolved"}, {"measurement": "solubility", "setting": "[9]; 5% w/v in PEG 400 USP", "result": "no signs of undissolved drug"}, {"measurement": "solubility", "setting": "[9]; glycerol USP, 5.04%, 2.5%, 1.25% and 0.625% w/v, sonicated 60 minutes at 37° C.", "result": "did not dissolve"}, {"measurement": "solubility", "setting": "[9]; w/v in PEG600 (concentration not given), sonicated at room temperature 1 hour", "result": "dissolved the drug completely"}, {"measurement": "solubility of drug powder in cream", "setting": "[10]; Dermabase cream", "result": "unable to dissolve in the cream"}, {"measurement": "solubility of drug powder in cream", "setting": "[10]; Dermabase cream, listed as Resatorvid (TAK-242)", "result": "undissolved and incompatible with creams"}, {"measurement": "solubility of drug powder in cream", "setting": "[10]; PENcream", "result": "undissolved drug"}, {"measurement": "solubility of drug powder in cream", "setting": "[10]; PENcream, listed as Resatorvid (TAK-242)", "result": "undissolved and incompatible with creams"}]}]}
